According to patent publication US8158794B2, “Hydroxyalkyl substituted imidazoquinoline compounds and methods” (3M Innovative Properties Company, priority 2005, dated 2012):
Counter-ions that a name gives are not always drawn. Like-named read-outs stand apart in the source and are kept apart here.

How the values were obtained:
[1] = test system: tumor necrosis factor (α) (TNF-α); assay: Cytokine induction in human cells: TNF-α secreted by PBMC (ORIGEN M-Series immunoassay); assay type: cell-based; set-up: key to Maximal Response (pg/mL) TNF: *: Below experimental background level; details: median if more than one experiment; for minimal effective concentration: lowest tested concentration inducing response over 40 pg/mL, read-out: Minimum Effective Concentration (μM) TNF; for Maximal Response (pg/mL) TNF: background-subtracted, reference-adjusted
Description: (§1) An in vitro human blood cell system is used to assess cytokine induction. Activity is based on the measurement of interferon (α) and tumor necrosis factor (α) (IFN-α and TNF-α, respectively) secreted into culture media as described by Testerman et. al. in “Cytokine Induction by the Immunomodulators Imiquimod and S-27609”, Journal of Leukocyte Biology, 58, 365-372 (September, 1995).
(§2) Whole blood from healthy human donors is collected by venipuncture into vacutainer tubes or syringes containing EDTA. Peripheral blood mononuclear cells (PBMC) are separated from whole blood by density gradient centrifugation using HISTOPAQUE-1077 (Sigma, St. Louis, Mo.) or Ficoll-Paque Plus (Amersham Biosciences Piscataway, N.J.). Blood is diluted 1:1 with Dulbecco's Phosphate Buffered Saline (DPBS) or Hank's Balanced Salts Solution (HBSS). Alternately, whole blood is placed in Accuspin (Sigma) or LeucoSep (Greiner Bio-One, Inc., Longwood, Fla.) centrifuge frit tubes containing density gradient medium. The PBMC layer is collected and washed twice with DPBS or HBSS and re-suspended at 4×10^6 cells/mL in RPMI complete. The PBMC suspension is added to 96 well flat bottom sterile tissue culture plates containing an equal volume of RPMI complete media containing test compound.
(§3) The compounds are solubilized in dimethyl sulfoxide (DMSO). The DMSO concentration should not exceed a final concentration of 1% for addition to the culture wells. The compounds are generally tested at concentrations ranging from 30-0.014 μM. Controls include cell samples with media only, cell samples with DMSO only (no compound), and cell samples with reference compound.
(§4) The solution of test compound is added at 60 μM to the first well containing RPMI complete and serial 3 fold dilutions are made in the wells. The PBMC suspension is then added to the wells in an equal volume, bringing the test compound concentrations to the desired range (usually 30-0.014 μM). The final concentration of PBMC suspension is 2×10^6 cells/mL. The plates are covered with sterile plastic lids, mixed gently and then incubated for 18 to 24 hours at 37° C. in a 5% carbon dioxide atmosphere.
(§5) Following incubation the plates are centrifuged for 10 minutes at 1000 rpm (approximately 200×g) at 4° C. The cell-free culture supernatant is removed and transferred to sterile polypropylene tubes. Samples are maintained at −30 to −70° C. until analysis. The samples are analyzed for IFN-α by ELISA and for TNF-α by IGEN/BioVeris Assay.
The TNF-α concentration is determined by ORIGEN M-Series Immunoassay and read on an IGEN M-8 analyzer from BioVeris Corporation, formerly known as IGEN International, Gaithersburg, Md. The immunoassay uses a human TNF-α capture and detection antibody pair (Catalog Numbers AHC3419 and AHC3712) from Biosource International, Camarillo, Calif. Results are expressed in pg/mL.
(§6) In total, the data output of the assay consists of concentration values of TNF-α and IFN-α(y-axis) as a function of compound concentration (x-axis).
Analysis of the data has two steps. First, the greater of the mean DMSO (DMSO control wells) or the experimental background (usually 20 pg/mL for IFN-α and 40 pg/mL for TNF-α) is subtracted from each reading. If any negative values result from background subtraction, the reading is reported as “*”, and is noted as not reliably detectable. In subsequent calculations and statistics, “*”, is treated as a zero. Second, all background subtracted values are multiplied by a single adjustment ratio to decrease experiment to experiment variability. The adjustment ratio is the area of the reference compound in the new experiment divided by the expected area of the reference compound based on the past 61 experiments (unadjusted readings). […]

[2] = test system: interferon (α) (IFN-α); assay: Cytokine induction in human cells: IFN-α secreted by PBMC (ELISA); assay type: cell-based; set-up: key to Maximal Response (pg/mL) IFN: *: Below experimental background level; details: median if more than one experiment; for minimal effective concentration: lowest tested concentration inducing response over 20 pg/mL, read-out: Minimum Effective Concentration (μM) IFN; for Maximal Response (pg/mL) IFN: background-subtracted, reference-adjusted
Description: as §1, §2, §3, §4, §5
IFN-α concentration is determined with a human multi-subtype colorimetric sandwich ELISA (Catalog Number 41105) from PBL Biomedical Laboratories, Piscataway, N.J. Results are expressed in pg/mL.
as §6
Analysis of the data has two steps. First, the greater of the mean DMSO (DMSO control wells) or the experimental background (usually 20 pg/mL for IFN-α and 40 pg/mL for TNF-α) is subtracted from each reading. If any negative values result from background subtraction, the reading is reported as “*”, and is noted as not reliably detectable. In subsequent calculations and statistics, “*”, is treated as a zero. Second, all background subtracted values are multiplied by a single adjustment ratio to decrease experiment to experiment variability. The adjustment ratio is the area of the reference compound in the new experiment divided by the expected area of the reference compound based on the past 61 experiments (unadjusted readings). […] The reference compound used is 2-[4-amino-2-ethoxymethyl-6,7,8,9-tetrahydro-α,α-dimethyl-1H-imidazo[4,5-c]quinolin-1-yl]ethanol hydrate (U.S. Pat. No. 5,352,784; Example 91) and the expected area is the sum of the median dose values from the past 61 experiments.
The minimum effective concentration is calculated based on the background-subtracted, reference-adjusted results for a given experiment and compound. […]

Structure (SMILES)	minimal effective concentration ([1]; 18 to 24 hours) [µM]	minimal effective concentration ([2]; 18 to 24 hours) [µM]	Maximal Response (pg/mL) TNF ([1]; tested 30-0.014 μM)	Maximal Response (pg/mL) IFN ([2]; tested 30-0.014 μM)	also measured
CS(=O)(=O)N1CCC(Cn2c(CO)nc3c(N)nc4cc(-c5cncc(CO)c5)ccc4c32)CC1 (as salt: HBr) (hydrate or solvate) [Example 44]					melting point: > 300 °C
CC(C)C(=O)N1CCC(Cn2c(CO)nc3c(N)nc4cc(-c5cncc(CO)c5)ccc4c32)CC1 (as salt: HBr) [Example 45]					melting point: > 300 °C
CC(C)NC(=O)N1CCC(Cn2c(CO)nc3c(N)nc4cc(-c5cncc(CO)c5)ccc4c32)CC1 (as salt: HBr) [Example 46]					melting point: > 300 °C
Nc1nc2cc(-c3cccc(C(=O)N4CCOCC4)c3)ccc2c2c1nc(CO)n2CC1CCCCC1 (as salt: HCl) (hydrate or solvate) [Example 50]					melting point: 260 to 264 °C
CC(C)(O)Cn1c(CO)nc2c(N)nc3cc(-c4cncc(CO)c4)ccc3c21 (hydrate or solvate) [Example 33]					melting point: 180 to 182 °C
CC(C)C(=O)N1CCC(Cn2c(CO)nc3c(N)nc4cc(-c5cccnc5)ccc4c32)CC1 (hydrate or solvate) [Example 35]					melting point: 154 to 157 °C
CC(C)(O)Cn1c(CO)nc2c(N)nc3cc(-c4ccc(F)nc4)ccc3c21 (hydrate or solvate) [Example 37]					melting point: 111 to 114 °C
CCc1nc2c(N)nc3cc(-c4cccnc4)ccc3c2n1CC(C)(C)O [Analog 1, 1-(4-amino-2-ethyl-7-pyridin-3-yl-1H-imidazo[4,5-c]quinolin-1-yl)-2-methylpropan-2-ol, reference compound]	0.37	0.12			minimal effective concentration ([1]; Table 3, 18 to 24 hours): 0.37 µM; minimal effective concentration ([2]; Table 3, 18 to 24 hours): 0.12 µM
CCCc1nc2c(N)nc3cc(-c4cccnc4)ccc3c2n1CC(C)(C)O [Analog 2, 1-(4-amino-2-propyl-7-pyridin-3-yl-1H-imidazo[4,5-c]quinolin-1-yl)-2-methylpropan-2-ol, reference compound]	0.37	0.04			minimal effective concentration ([1]; Table 3, 18 to 24 hours): 0.37 µM; minimal effective concentration ([2]; Table 3, 18 to 24 hours): 0.04 µM
CCOCc1nc2c(N)nc3cc(-c4cccnc4)ccc3c2n1CC(C)(C)O [Analog 3, 1-(4-amino-2-ethoxymethyl-7-pyridin-3-yl-1H-imidazo[4,5-c]quinolin-1-yl)-2-methylpropan-2-ol, reference compound]	0.12	0.04			minimal effective concentration ([1]; Table 3, 18 to 24 hours): 0.12 µM; minimal effective concentration ([2]; Table 3, 18 to 24 hours): 0.04 µM
CC(C)(O)Cn1c(CCO)nc2c(N)nc3cc(-c4ccccc4)ccc3c21 [Example 2]	3.33	0.37	67 pg/mL	1274 pg/mL	
CC(C)Cn1c(CCO)nc2c(N)nc3cc(-c4cccnc4)ccc3c21 [Example 3]	3.33	0.37	42 pg/mL	1180 pg/mL	
CC(C)Cn1c(CCO)nc2c(N)nc3cc(-c4cncc(CO)c4)ccc3c21 [Example 4]	10	0.12	349 pg/mL	1891 pg/mL	
CC(C)(O)Cn1c(CO)nc2c(N)nc3cc(-c4cccnc4)ccc3c21 [Example 8]	10	0.37	51 pg/mL	2886 pg/mL	minimal effective concentration ([1]; Table 3, 18 to 24 hours): >30 µM; Maximal Response (pg/mL) TNF ([1]; Table 3, tested 30-0.014 μM): * (Below experimental background level of 40/pg mL); minimal effective concentration ([2]; Table 3, 18 to 24 hours): 1.11 µM; Maximal Response (pg/mL) IFN ([2]; Table 3, tested 30-0.014 μM): 2251 pg/mL
Cc1cccc(-c2ccc3c(c2)nc(N)c2nc(CO)n(CC(C)(C)O)c23)c1 [Example 9]	>30	30	*	87 pg/mL	
Cc1ccc(-c2ccc3c(c2)nc(N)c2nc(CO)n(CC(C)(C)O)c23)cc1 [Example 10]	0.37	0.37	7423 pg/mL	1681 pg/mL	
CC(C)(O)Cn1c(CO)nc2c(N)nc3cc(-c4cccc(O)c4)ccc3c21 [Example 13]	10	0.37	352 pg/mL	12641 pg/mL	
CC(C)(O)Cn1c(CO)nc2c(N)nc3cc(-c4cncc(CO)c4)ccc3c21 [Example 33]	> 30	0.37	*		
CC(C)C(=O)N1CCC(Cn2c(CO)nc3c(N)nc4cc(-c5cccnc5)ccc4c32)CC1 [Example 35]	> 30	1.11	*		
CCCNC(=O)NCCCCn1c(CO)nc2c(N)nc3cc(-c4cccnc4)ccc3c21 [Example 39]	30	0.37			
Nc1nc2cc(-c3cccnc3)ccc2c2c1nc(CO)n2CCCCNC(=O)NC1CCCC1 [Example 41]	10	0.04			
CC(C)C(=O)NCCCCn1c(CO)nc2c(N)nc3cc(-c4cccnc4)ccc3c21 [Example 43]	10	0.37			
CC(C)C(=O)N1CCC(Cn2c(CO)nc3c(N)nc4cc(-c5cncc(CO)c5)ccc4c32)CC1 [Example 45]	> 30	> 30	*	*	
Nc1nc2cc(-c3cncc(CO)c3)ccc2c2c1nc(CO)n2CC1CCCCC1 [Example 49]	> 30	3.33	*		
Nc1nc2cc(-c3cccc(C(=O)N4CCOCC4)c3)ccc2c2c1nc(CO)n2CC1CCCCC1 [Example 50]	> 30	1.11	*		
